{"source": "patent US4824860A", "about": "“Treatment of Parkinsons disease” (priority 1987, dated 1989)", "key": {"[1]": {"assay": "Mouse spontaneous locomotor activity using individual cages equipped with photocells (test 1)", "type": "in vivo", "conditions": "for dose profile of effect on locomotor activity: 'in these tests' (locomotor tests 1-3), inhibition at low, stimulation at high dose", "source_text": "1. Mouse spontaneous locomotor activity using individual cages equipped with photocells."}, "[2]": {"assay": "Mouse spontaneous locomotor activity using treadwheels (test 2)", "type": "in vivo", "source_text": "2. Mouse spontaneous locomotor activity using treadwheels."}, "[3]": {"assay": "Mouse spontaneous locomotor activity measuring climbing frame behaviour (test 3)", "type": "in vivo", "source_text": "3. Mouse spontaneous locomotor activity measuring climbing frame behaviour."}, "[4]": {"assay": "Measurement of stereotyped behaviour in the mouse (test 4)", "type": "in vivo", "source_text": "4. Measurement of stereotyped behaviour in the mouse."}, "[5]": {"assay": "Rat spontaneous locomotor activity using photocell cages: measurement of stereotypy (test 5)", "type": "in vivo", "source_text": "5. Rat spontaneous locomotor activity using individual cages equipped with photocells: measurement of stereotypy."}, "[6]": {"assay": "Hyperactivity following direct administration into the mesolimbic nucleus accumbens of the rat (test 6)", "type": "in vivo", "source_text": "6. Measurement of hyperactivity following direct administration into the mesolimbic nucleus accumbens of the rat. An indicator of anti-depressant activity.\nEnhancement of locomotor activity by amphetamine and other dopamine agonists is difficult to measure because it is complicated by the development of stereotypies. […] Direct action of a compound to cause hyperactivity following administration into the mesolimbic nucleus accumbens is considered to be indicative of anti-depressant activity."}, "[7]": {"assay": "Asymmetry and circling after unilateral administration into the extrapyramidal caudate-putamen (striatum) (test 7)", "type": "in vivo, rat", "source_text": "7. Effect on observed locomotor activity following direct administration into the extrapyramidal caudate-putamen (striatum). A test for anti-Parkinsonism potential."}, "[8]": {"assay": "Anti-depressant activity in the mouse using the Porsolt test (test 8)", "type": "in vivo", "conditions": "mice", "source_text": "8. Measurement of anti-depressant activity in the mouse using the `Porsolt Test`."}, "[9]": {"assay": "Anxiolytic activity in the mouse using a black and white test box (test 9)", "type": "in vivo", "source_text": "9. Anxiolytic activity in the mouse using a black and white test box."}, "MPTP-treated marmoset": {"system": "MPTP-treated marmoset", "assay": "MPTP-treated marmoset model of anti-Parkinson activity (test 10)", "type": "in vivo", "source_text": "10. MPTP-treated marmoset model. A test for anti-Parkinson activity.\n(i) Parkinsonism-like motor deficits (hypokinesia and bradykinesia) were induced in marmosets by the intranigral infusion of 1-methyl-4-phenyl-1,2,3,6-tetrahydropyridine (MPTP) for 13 days via an implanted injection unit and osmotic minipump (Test 10). […] Drug assessments were begun after 7-10 days of infusion."}, "5HT1 receptors": {"system": "5HT1 receptors", "assay": "Receptor binding studies using rat brain: 5HT1"}, "dopamine D1 receptors": {"system": "dopamine D1 receptors", "assay": "Receptor binding studies using rat brain: dopamine D1"}, "[10]": {"conditions": "10 μg injected directly into the mesolimbic nucleus accumbens"}, "[11]": {"conditions": "0.05 mg/kg s.c., mean n=4, P<0.05"}, "[12]": {"conditions": "0.05 mg/kg s.c., mean of responding animals only"}, "[13]": {"conditions": "0.1 mg/kg s.c., mean n=4, P<0.01"}, "[14]": {"conditions": "1.0 mg/kg s.c., mean n=4, P<0.01"}, "[15]": {"conditions": "0.1-1 mg/kg i.p., separate study"}}, "data": [{"smiles": "CCCN(CCC)CCc1cccc2c1CC(=O)N2.Cl", "note": "[Compound A, 4-(2-di-n-propylaminoethyl)-2-(3H)-indolone hydrochloride]", "values": [{"measurement": "spontaneous locomotor activity", "setting": "[1]; photocell cages, 1.0 and 10.0 mg/kg i.p., statistically significant (P<0.01-0.001) at 10 mg/kg", "value": "inhibition of spontaneous locomotor activity"}, {"measurement": "locomotor activity", "setting": "[1]; photocell test, 100 mg/kg, P<0.001", "value": "Stimulation of locomotor activity"}, {"measurement": "locomotor activity", "setting": "[2]; treadwheel test, 100 mg/kg, P<0.001", "value": "Stimulation of locomotor activity"}, {"measurement": "spontaneous locomotor activity", "setting": "[2]; treadwheels, 1.0 and 10.0 mg/kg i.p.", "value": "inhibition of spontaneous locomotor activity"}, {"measurement": "locomotor activity", "setting": "[3]; 100 mg/kg, no stimulation", "value": "original inhibition was reversed"}, {"measurement": "spontaneous locomotor activity", "setting": "[3]; 1.0 and 10.0 mg/kg i.p., statistically significant at 1.0 mg/kg", "value": "inhibition of spontaneous locomotor activity"}, {"measurement": "stereotypy", "setting": "[4]; mouse, 1.0, 10.0 and 100 mg/kg i.p., only periodic sniffing", "value": "no dose dependent stereotypies"}, {"measurement": "stereotypy", "setting": "[5]; rat, 1.0, 10.0 and 100 mg/kg i.p., only periodic sniffing", "value": "no dose dependent stereotypies"}, {"measurement": "spontaneous locomotion", "setting": "[5]; rat, 10.0 and 100.0 mg/kg i.p., P<0.001", "value": "dose-related increases in spontaneous locomotion"}, {"measurement": "duration of increase in spontaneous locomotion", "setting": "[5]; rat, higher dose (100.0 mg/kg i.p.)", "value": "> 2.5", "unit": "h"}, {"measurement": "spontaneous locomotion", "setting": "[6]; 1.0 μg into the nucleus accumbens, tendency to inhibition in first 10 minutes", "value": "ineffective"}, {"measurement": "spontaneous locomotion", "setting": "[6]; [10]", "value": "marked (P<0.001) increase in spontaneous locomotion"}, {"measurement": "asymmetry and circling behaviour", "setting": "[7]; 0.01-10.0 μg unilaterally into caudate-putamen, statistically significant at 1.0 and 10.0 μg", "value": "marked contralateral asymmetry and circling behaviour"}, {"measurement": "anti-depressant activity", "setting": "[8]; 0.1-10 mg/kg i/p.", "value": "statistically significant (P<0.05) anti-depressant activity"}, {"measurement": "anti-depressant activity compared with amitriptyline", "setting": "[8]; amitriptyline 2.4-40 mg/kg i.p.", "value": "greater than amitriptyline"}, {"measurement": "period in the black area", "setting": "[9]; 0.1-10 mg/kg i.p.", "value": "correspondingly reduced period in the black area"}, {"measurement": "time spent in the white section", "setting": "[9]; 0.1-10 mg/kg i.p.", "value": "statistically significant increase in the time spent in the white section"}, {"measurement": "% time in head movements", "setting": "MPTP-treated marmoset; 0.01 mg/kg s.c., mean n=4", "value": 26, "unit": "%"}, {"measurement": "% time spent in LMA", "setting": "MPTP-treated marmoset; 0.01 mg/kg s.c., mean n=4", "value": 4, "unit": "%"}, {"measurement": "LMA (% control)", "setting": "MPTP-treated marmoset; 0.01 mg/kg s.c., mean n=4", "value": 26, "unit": "% control"}, {"measurement": "% time in head movements", "setting": "MPTP-treated marmoset; [11]", "value": 36, "unit": "%"}, {"measurement": "% time spent in LMA", "setting": "MPTP-treated marmoset; [11]", "value": 12, "unit": "%"}, {"measurement": "LMA (% control)", "setting": "MPTP-treated marmoset; [11]", "value": 47, "unit": "% control"}, {"measurement": "% time in head movements", "setting": "MPTP-treated marmoset; [12]", "value": 80, "unit": "%"}, {"measurement": "% time spent in LMA", "setting": "MPTP-treated marmoset; [12]", "value": 23, "unit": "%"}, {"measurement": "LMA (% control)", "setting": "MPTP-treated marmoset; [12]", "value": 70, "unit": "% control"}, {"measurement": "% time in head movements", "setting": "MPTP-treated marmoset; [13]", "value": 83, "unit": "%"}, {"measurement": "% time spent in LMA", "setting": "MPTP-treated marmoset; [13]", "value": 29, "unit": "%"}, {"measurement": "LMA (% control)", "setting": "MPTP-treated marmoset; [13]", "value": 93, "unit": "% control"}, {"measurement": "% time in head movements", "setting": "MPTP-treated marmoset; [14]", "value": 84, "unit": "%"}, {"measurement": "% time spent in LMA", "setting": "MPTP-treated marmoset; [14]", "value": 28, "unit": "%"}, {"measurement": "LMA (% control)", "setting": "MPTP-treated marmoset; [14]", "value": 103, "unit": "% control"}, {"measurement": "development of tolerance", "setting": "MPTP-treated marmoset; 0.1, 1.0 mg/kg s.c. twice daily for 7 days", "value": "no development of tolerance"}, {"measurement": "motor behaviour", "setting": "MPTP-treated marmoset; MPTP marmosets, 0.05-1.0 mg/kg s.c., at 0.05 mg/kg 1 or 2 marmosets did not respond", "value": "fully restored normal motor behaviour"}, {"measurement": "movements in the limbs, trunk, head and neck", "setting": "MPTP-treated marmoset; MPTP marmosets, s.c., most marked effect", "value": "full restoration of normal movements"}, {"measurement": "MPTP-induced motor deficits", "setting": "MPTP-treated marmoset; oral, each of 0.1, 0.5 or 1.0 mg/kg, seven listed motor deficits", "value": "Partial reversal"}, {"measurement": "response", "setting": "MPTP-treated marmoset; oral, highest dose 1.0 mg/kg, n=3", "value": "supramaximal"}, {"measurement": "response", "setting": "MPTP-treated marmoset; oral, lowest dose 0.1 mg/kg, n=2", "value": "submaximal"}, {"measurement": "emesis", "setting": "MPTP-treated marmoset; oral, the two lower doses (0.1, 0.5 mg/kg)", "value": "No emesis"}]}, {"smiles": "N[C@@H](Cc1ccc(O)c(O)c1)C(=O)O", "note": "[L-DOPA, reference compound]", "values": [{"measurement": "MPTP-induced motor deficits", "setting": "MPTP-treated marmoset; 12.5 mg/kg i.p. 30 min. pretreatment, after benserazide 12.5 mg/kg s.c. 90 min. pretreatment", "value": "restored MPTP-induced motor deficits"}, {"measurement": "effectiveness compared with Compound A", "setting": "MPTP-treated marmoset; L-DOPA 12.5 mg/kg i.p. after benserazide 12.5 mg/kg s.c., versus 0.1 mg/kg s.c. Compound A", "value": "less effective than 0.1 mg/kg s.c. Compound A"}]}, {"smiles": "CC(N)Cc1ccccc1", "note": "(stereo not drawn) [amphetamine, reference compound]", "values": [{"measurement": "dose profile of effect on locomotor activity", "setting": "[1]", "value": "biphasic activity"}, {"measurement": "stereotypy", "setting": "[4]; mouse, doses up to 10.0 mg/kg i.p., continuous biting, gnawing and licking", "value": "marked stereotyped behaviour"}, {"measurement": "stereotypy", "setting": "[5]; rat, doses up to 10.0 mg/kg i.p., continuous biting, gnawing and licking", "value": "marked stereotyped behaviour"}, {"measurement": "spontaneous locomotion", "setting": "[6]; [10]", "value": "equally effective"}, {"measurement": "asymmetry and circling behaviour", "setting": "[7]; up to 100 μg unilaterally into caudate-putamen", "value": "inactive"}]}, {"smiles": "CN1CCc2cccc3c2[C@H]1Cc1ccc(O)c(O)c1-3", "note": "[apomorphine, reference compound]", "values": [{"measurement": "dose profile of effect on locomotor activity", "setting": "[1]", "value": "biphasic activity"}, {"measurement": "stereotypy", "setting": "[4]; mouse, 2.0 mg/kg s.c., continuous biting, gnawing and licking", "value": "marked stereotyped behaviour"}, {"measurement": "stereotypy", "setting": "[5]; rat, 2.0 mg/kg s.c., continuous biting, gnawing and licking", "value": "marked stereotyped behaviour"}, {"measurement": "asymmetry and circling behaviour", "setting": "[7]; up to 50 μg unilaterally into caudate-putamen", "value": "inactive"}]}, {"smiles": "CC(C)C[C@H]1C(=O)N2CCC[C@H]2[C@]2(O)O[C@](NC(=O)[C@@H]3C=C4c5cccc6[nH]c(Br)c(c56)C[C@H]4N(C)C3)(C(C)C)C(=O)N12", "note": "[bromocriptine, reference compound]", "values": [{"measurement": "swimming time", "setting": "[8]; 0.1-1 mg/kg i.p., effect at the higher dose", "value": "statistically significant reduction in swimming time"}, {"measurement": "investigatory activity in the black area", "setting": "[9]; [15]", "value": "statistically significant increase in investigatory activity in the black area"}, {"measurement": "light aversion", "setting": "[9]; [15]", "value": "no change in the light aversion"}, {"measurement": "MPTP-induced motor deficits", "setting": "MPTP-treated marmoset; 0.1 mg/kg s.c.", "value": "little effect"}, {"measurement": "affinity for 5HT1 receptors", "setting": "5HT1 receptors", "value": "showed affinity"}]}, {"smiles": "CCCN1C[C@H](CSC)C[C@@H]2c3cccc4[nH]cc(c34)C[C@H]21", "note": "[pergolide]", "values": [{"measurement": "affinity for 5HT1 receptors", "setting": "5HT1 receptors", "value": "showed affinity"}, {"measurement": "affinity for dopamine D1 receptors", "setting": "dopamine D1 receptors", "value": "bound to dopamine D1 receptors"}]}]}
